The results in this text go back to patent publication CN116444420A, “β-catenin/BCL9蛋白蛋白相互作用的小分子抑制剂及其应用” (Shanghai Pharmaceutical Industry Research Institute Co ltd, priority 2021, dated 2023).

One experiment deals with T1, hERG potassium channel [hERG钾离子通道] (Homo sapiens, UniProt Q12809).
T1 construct: expressed in transfected cells; host or cells: HEK293 (stably transfected)
T1 sequence (Q12809 whole entry): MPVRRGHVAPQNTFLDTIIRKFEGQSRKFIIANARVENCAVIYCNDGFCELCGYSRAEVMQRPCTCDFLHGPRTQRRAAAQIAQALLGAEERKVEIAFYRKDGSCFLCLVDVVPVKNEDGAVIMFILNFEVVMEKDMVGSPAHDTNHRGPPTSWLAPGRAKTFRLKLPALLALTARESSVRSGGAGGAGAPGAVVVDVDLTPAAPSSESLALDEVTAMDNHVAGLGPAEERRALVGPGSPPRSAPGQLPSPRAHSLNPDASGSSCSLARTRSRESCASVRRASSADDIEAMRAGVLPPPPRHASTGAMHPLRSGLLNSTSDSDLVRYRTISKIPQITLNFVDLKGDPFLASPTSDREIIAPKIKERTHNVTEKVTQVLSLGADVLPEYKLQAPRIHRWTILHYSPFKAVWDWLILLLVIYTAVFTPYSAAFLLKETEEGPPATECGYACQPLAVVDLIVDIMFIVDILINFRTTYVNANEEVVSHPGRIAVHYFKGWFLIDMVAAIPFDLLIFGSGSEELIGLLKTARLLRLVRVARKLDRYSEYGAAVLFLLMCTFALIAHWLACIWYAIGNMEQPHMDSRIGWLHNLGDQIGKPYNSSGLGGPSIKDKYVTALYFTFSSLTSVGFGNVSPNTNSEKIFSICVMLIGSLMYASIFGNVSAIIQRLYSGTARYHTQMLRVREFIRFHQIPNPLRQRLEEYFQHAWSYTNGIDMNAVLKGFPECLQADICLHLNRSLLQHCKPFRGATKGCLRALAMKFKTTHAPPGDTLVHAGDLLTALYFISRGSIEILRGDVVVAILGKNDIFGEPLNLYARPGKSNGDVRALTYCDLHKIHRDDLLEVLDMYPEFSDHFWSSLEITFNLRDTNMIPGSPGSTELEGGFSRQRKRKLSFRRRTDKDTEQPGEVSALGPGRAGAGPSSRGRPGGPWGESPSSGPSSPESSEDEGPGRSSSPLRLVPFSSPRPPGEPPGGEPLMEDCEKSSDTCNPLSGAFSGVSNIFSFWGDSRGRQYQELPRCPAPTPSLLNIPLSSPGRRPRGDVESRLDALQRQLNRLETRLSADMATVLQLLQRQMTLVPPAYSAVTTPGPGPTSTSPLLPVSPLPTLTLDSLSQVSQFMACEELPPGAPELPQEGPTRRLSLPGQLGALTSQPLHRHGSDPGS
Nature of the experiment: hERG potassium channel, whole-cell patch clamp (Example 73). It counts as cell-based. As to conditions: whole-cell patch clamp, HEK293 cells stably transfected, room temperature; read-out: hERG IC50. For orientation: Block of hERG is tested as a sign of cardiac risk.
Usually IC50 stands for the point on the concentration scale where inhibition reaches its midpoint. Turning to `CC(C)(Oc1cccc(C2CCCN(C(=O)c3cccc(-c4ccc(F)c(F)c4)c3)C2)c1)C(=O)O` (centres unmarked) [化合物II-2, 2-(3-(1-(3',4'-二氟-[1,1'-联苯基]-3-羰基)哌啶-3-基)苯氧基)-2-甲基丙酸], the IC50 is more than 10 µM.

Take `CC(C)(Oc1cccc(C2CCCN(S(=O)(=O)c3cccc(-c4ccsc4)c3)C2)c1)C(=O)O` (centres unmarked) [化合物II-14, 2-甲基-2-(3-(1-((3-(噻吩-3-基)苯基)磺酰基)哌啶-3-基)苯氧基)丙酸]: the IC50 was more than 10 µM.

In another experiment the target is T2, β-catenin/BCL9 protein-protein [β-catenin/BCL9蛋白-蛋白] (Homo sapiens, UniProt P35222).
T2 construct: β-catenin(1-781)
T2 sequence (P35222 1-781): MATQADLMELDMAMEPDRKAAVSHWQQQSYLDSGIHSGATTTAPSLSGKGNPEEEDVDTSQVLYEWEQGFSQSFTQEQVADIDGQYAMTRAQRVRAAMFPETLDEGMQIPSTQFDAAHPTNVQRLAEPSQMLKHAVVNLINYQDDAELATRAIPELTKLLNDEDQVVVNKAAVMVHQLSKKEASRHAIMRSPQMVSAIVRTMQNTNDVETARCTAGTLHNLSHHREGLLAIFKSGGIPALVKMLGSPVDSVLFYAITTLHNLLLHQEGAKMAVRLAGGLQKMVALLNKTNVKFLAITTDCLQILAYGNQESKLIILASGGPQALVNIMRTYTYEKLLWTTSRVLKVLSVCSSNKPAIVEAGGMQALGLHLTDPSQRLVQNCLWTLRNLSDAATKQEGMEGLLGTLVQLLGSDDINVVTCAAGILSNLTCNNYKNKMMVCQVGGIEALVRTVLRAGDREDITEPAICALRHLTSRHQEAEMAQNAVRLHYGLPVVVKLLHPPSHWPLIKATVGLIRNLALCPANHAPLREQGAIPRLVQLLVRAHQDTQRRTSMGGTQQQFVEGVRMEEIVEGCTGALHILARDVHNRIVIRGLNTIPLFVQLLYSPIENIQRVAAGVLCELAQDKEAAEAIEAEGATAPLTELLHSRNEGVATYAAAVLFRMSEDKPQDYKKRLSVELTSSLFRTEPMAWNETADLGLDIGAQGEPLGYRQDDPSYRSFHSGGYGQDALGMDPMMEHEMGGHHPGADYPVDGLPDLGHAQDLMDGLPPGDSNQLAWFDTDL
Nature of the experiment: β-catenin/BCL9 protein-protein affinity, fluorescence polarisation (Example 71). It counts as binding. As to conditions: better than compound c.
Turning to `CC(C)(Oc1cccc(C2CCCN(C(=O)c3cccc(-c4ccccc4)c3)C2)c1)C(=O)O` (centres unmarked) [化合物II-9, 2-(3-(1-([1,1'-联苯基]-3-羰基)哌啶-3-基)苯氧基)-2-甲基丙酸], the “affinity activity compared with reference compound c” value is “亲和活性更优”.

In the case of `CC(C)(Oc1cccc(C2CCCN(S(=O)(=O)c3cccc(C4CCCCC4)c3)C2)c1)C(=O)O` (centres unmarked) [化合物II-16, 2-(3-(1-((3-环己基苯基)磺酰基)哌啶-3-基)苯氧基)-2-甲基丙酸], the “affinity activity compared with reference compound c” value is given as “亲和活性更优”.

With `CC(C)(Oc1cccc(C2CCCN(S(=O)(=O)c3cccc(-c4cccs4)c3)C2)c1)C(=O)O` (centres unmarked) [化合物II-17, 2-甲基-2-(3-(1-((3-(噻吩-2-基)苯基)磺酰基)哌啶-3-基)苯氧基)丙酸], the “affinity activity compared with reference compound c” value was “亲和活性更优”.

Take `CC(C)(Oc1cccc(C2CCCN(C(=O)c3cccc(-c4ccc(F)c(F)c4)c3)C2)c1)C(=O)NS(=O)(=O)c1ccccc1` (centres unmarked) [化合物II-29, 2-(3-(1-(3',4'-二氟-[1,1'-联苯基]-3-羰基)哌啶-3-基)苯氧基)-2-甲基-N-(苯磺酰基)丙酰胺]: the “affinity activity compared with reference compound c” value is recorded as “亲和活性更优”.

Consider `CC(C)c1ccc(-c2cccc(S(=O)(=O)N3CCCC(c4cccc(OC(C)(C)C(=O)NS(=O)(=O)c5ccc(C#N)cc5)c4)C3)c2)cc1` (centres unmarked) [化合物II-37, N-((4-氰基苯基)磺酰基)-2-(3-(1-((4'-异丙基-[1,1'-联苯]-3-基)磺酰)哌啶-3-基(苯氧基)-2-甲基丙酰胺], for which the “affinity activity compared with reference compound c” value is recorded as “亲和活性更优”.

As for `CC(C)c1ccc(-c2cccc(S(=O)(=O)N3CCCC(c4cccc(OC(C)(C)C(=O)NS(=O)(=O)c5cccc(C(F)(F)F)c5)c4)C3)c2)cc1` (centres unmarked) [化合物II-40, 2-(3-(1-((4'-异丙基-[1,1'-联苯]-3-基)磺酰基)哌啶-3-基(苯氧基)-2-甲基-N-((3-(三氟甲基)苯基)磺酰)丙酰胺], the “affinity activity compared with reference compound c” value is given as “亲和活性更优”.

On to `CC(C)c1ccc(-c2cccc(S(=O)(=O)N3CCCC(c4cccc(OC(C)(C)C(=O)NS(=O)(=O)c5ccc([N+](=O)[O-])cc5)c4)C3)c2)cc1` (centres unmarked) [化合物II-42, 2-(3-(1-((4'-异丙基-[1,1'-联苯]-3-基)磺酰基)哌啶-3-基苯氧基)-2-甲基-N-((4-硝基苯基)磺酰)丙酰胺], for which the “affinity activity compared with reference compound c” value was “亲和活性更优”.

With `CC(C)c1ccc(-c2cccc(S(=O)(=O)N3CCCC(c4cccc(OC(C)(C)C(=O)NS(=O)(=O)c5ccc(F)cc5)c4)C3)c2)cc1` (centres unmarked) [化合物II-43, N-((4-氟苯基)磺酰基)-2-(3-(1-((4'-异丙基-[1,1'-联苯]-3-基)磺酰)哌啶-3-基苯氧基)-2-甲基丙酰胺], the “affinity activity compared with reference compound c” value was “亲和活性更优”.

As for `CC(C)c1ccc(-c2cccc(S(=O)(=O)N3CCCC(c4cccc(OC(C)(C)C(=O)NS(=O)(=O)c5cccc(F)c5)c4)C3)c2)cc1` (centres unmarked) [化合物II-44, N-((3-氟苯基)磺酰基)-2-(3-(1-((4'-异丙基-[1,1'-联苯]-3-基)磺酰)哌啶-3-基苯氧基)-2-甲基丙酰胺], the “affinity activity compared with reference compound c” value was “亲和活性更优”.

Take `CC(C)c1ccc(-c2cccc(S(=O)(=O)N3CCCC(c4cccc(OC(C)(C)C(=O)NS(=O)(=O)c5cccc([N+](=O)[O-])c5)c4)C3)c2)cc1` (centres unmarked) [化合物II-45, 2-(3-(1-((4'-异丙基-[1,1'-联苯]-3-基)磺酰基)哌啶-3-基苯氧基)-2-甲基-N-((3-硝基苯基)磺酰)丙酰胺]: the “affinity activity compared with reference compound c” value is recorded as “亲和活性更优”.

On to `CC(C)c1ccc(-c2cccc(S(=O)(=O)N3CCCC(c4cccc(OC(C)(C)C(=O)NS(=O)(=O)c5cccc(C#N)c5)c4)C3)c2)cc1` (centres unmarked) [化合物II-46, N-((3-氰基苯基)磺酰基)-2-(3-(1-((4'-异丙基-[1,1'-联苯]-3-基)磺酰)哌啶-3-基苯氧基)-2-甲基丙酰胺], for which the “affinity activity compared with reference compound c” value is “亲和活性更优”.

On to `CC(C)c1ccc(-c2cccc(S(=O)(=O)N3CCCC(c4cccc(OC(C)(C)C(=O)NS(=O)(=O)c5ccc(OC(F)(F)F)cc5)c4)C3)c2)cc1` (centres unmarked) [化合物II-48, 2-(3-(1-((4'-异丙基-[1,1'-联苯]-3-基)磺酰基)哌啶-3-基苯氧基)-2-甲基-N-((4-(三氟甲氧基)苯基)磺酰)丙酰胺], for which the “affinity activity compared with reference compound c” value is given as “亲和活性更优”.

As for `CC(=O)Nc1ccc(S(=O)(=O)NC(=O)C(C)(C)Oc2cccc(C3CCCN(S(=O)(=O)c4cccc(-c5ccc(C(C)C)cc5)c4)C3)c2)cc1` (centres unmarked) [化合物II-49, N-((4-乙酰氨基苯基)磺酰基)-2-(3-(1-((4'-异丙基-[1,1'-联苯]-3-基)磺酰)哌啶-3-基(苯氧基)-2-甲基丙酰胺], the “affinity activity compared with reference compound c” value is reported as “亲和活性更优”.

`CC(C)c1ccc(-c2cccc(S(=O)(=O)N3CCCC(c4cccc(OC(C)(C)C(=O)NS(=O)(=O)c5ccc6ccccc6c5)c4)C3)c2)cc1` (centres unmarked) [化合物II-50, 2-(3-(1-((4'-异丙基-[1,1'-联苯]-3-基)磺酰基)哌啶-3-基(苯氧基)-2-甲基-N-(萘-2-基磺酰)丙酰胺]: the “affinity activity compared with reference compound c” value was “亲和活性更优”.

Turning to `COc1cccc(S(=O)(=O)NC(=O)C(C)(C)Oc2cccc(C3CCCN(S(=O)(=O)c4cccc(-c5ccc(C(C)C)cc5)c4)C3)c2)c1` (centres unmarked) [化合物II-51, 2-(3-(1-((4'-异丙基-[1,1'-联苯]-3-基)磺酰基)哌啶-3-基(苯氧基)-N-((3-甲氧基苯基)磺酰)-2-甲基丙酰胺], the “affinity activity compared with reference compound c” value was “亲和活性更优”.

In the case of `CC(C)c1ccc(-c2cccc(S(=O)(=O)N3CCCC(c4cccc(OC(C)(C)C(=O)NS(=O)(=O)c5ccc(C(F)(F)F)cc5Cl)c4)C3)c2)cc1` (centres unmarked) [化合物II-52, N-((2-氯-4-(三氟甲基)苯基)磺酰基)-2-(3-(1-((4'-异丙基-[1,1'-联苯]-3-基)磺酰)哌啶-3-基苯氧基)-2-甲基丙酰胺], the “affinity activity compared with reference compound c” value was “亲和活性更优”.

`CC(C)(Oc1cccc(C2CCCN(C(=O)c3cccc(-c4ccc(F)c(F)c4)c3)C2)c1)C(=O)NS(=O)(=O)c1ccc(C(F)(F)F)cc1` (centres unmarked) [化合物II-55, 2-(3-(1-(3',4'-二氟-[1,1'-联苯]-3-羰基)哌啶-3-基)苯氧基)-2-甲基-N-((4-(三氟甲基)苯基)磺酰基)丙酰胺]: the “affinity activity compared with reference compound c” value was “亲和活性更优”.

For the compound `CC(C)(Oc1cccc(C2CCCN(C(=O)c3cccc(-c4ccc(F)c(F)c4)c3)C2)c1)C(=O)NS(=O)(=O)c1ccc2ccccc2c1` (centres unmarked) [化合物II-56, 2-(3-(1-(3',4'-二氟-[1,1'-联苯]-3-羰基)哌啶-3-基)苯氧基)-2-甲基-N-(萘-2-基磺酰基)丙酰胺], the “affinity activity compared with reference compound c” value is “亲和活性更优”.

`CC(C)(Oc1cccc(C2CCCN(C(=O)c3cccc(-c4ccc(F)c(F)c4)c3)C2)c1)C(=O)N1CCC(=O)CC1` (centres unmarked) [化合物II-57, 1-(2-(3-(1-(3',4'-二氟-[1,1'-联苯]-3-羰基)哌啶-3-基)苯氧基)-2-甲基丙酰基)哌嗪-4-酮]: the “affinity activity compared with reference compound c” value is listed as “亲和活性更优”.

For `CC(C)(Oc1cccc(C2CCCN(C(=O)c3cccc(-c4ccc(F)c(F)c4)c3)C2)c1)C(=O)N1CCNCC1.Cl` (centres unmarked) [化合物II-58, 4-(2-(3-(1-(3',4'-二氟-[1,1'-联苯]-3-羰基)哌啶-3-基)苯氧基)-2-甲基丙酰基)哌嗪-1-氯化铵], the “affinity activity compared with reference compound c” value was “亲和活性更优”.

Turning to `CC(C)(Oc1cccc(C2CCCN(C(=O)c3cccc(-c4ccc(F)c(F)c4)c3)C2)c1)C(=O)N1CCC(N)CC1.Cl` (centres unmarked) [化合物II-59, 1-(2-(3-(1-(3',4'-二氟-[1,1'-联苯]-3-羰基)哌啶-3-基)苯氧基)-2-甲基丙酰基)哌嗪-4-氯化铵], the “affinity activity compared with reference compound c” value is recorded as “亲和活性更优”.

Consider `CC(C)(Oc1cccc(C2CCCN(C(=O)c3cccc(-c4ccc(F)c(F)c4)c3)C2)c1)C(=O)N1CCOCC1` (centres unmarked) [化合物II-60, 2-(3-(1-(3',4'-二氟-[1,1'-联苯]-3-羰基)哌啶-3-基)苯氧基)-2-甲基-1-吗啉丙-1-酮], for which the “affinity activity compared with reference compound c” value is on record as “亲和活性更优”.

With `CC(C)(Oc1cccc(C2CCCN(C(=O)c3cccc(-c4ccc(F)c(F)c4)c3)C2)c1)C(=O)NC1CCNCC1.Cl` (centres unmarked) [化合物II-61, 4-(2-(3-(1-(3',4'-二氟-[1,1'-联苯]-3-羰基)哌啶-3-基)苯氧基)-2-甲基丙酰胺)哌啶-1-氯化铵], the “affinity activity compared with reference compound c” value is recorded as “亲和活性更优”.

Take `CC(C)(Oc1cccc(C2CCCN(C(=O)c3cccc(-c4ccc(F)c(F)c4)c3)C2)c1)C(=O)N1CCC(O)CC1` (centres unmarked) [化合物II-63, 2-(3-(1-(3',4'-二氟-[1,1'-联苯]-3-羰基)哌啶-3-基)苯氧基)-1-(4-羟基哌啶-1-基)-2-甲基丙-1-酮]: the “affinity activity compared with reference compound c” value was “亲和活性更优”.

Turning to `CC(C)(Oc1cccc(C2CCCN(C(=O)c3cccc(-c4ccc(F)c(F)c4)c3)C2)c1)C(=O)N1C[C@H]2C[C@@H]1CN2.Cl` (stereo partly drawn) [化合物II-65, (1R,4R)-5-(2-(3-(3-(3',4'-二氟-[1,1'-联苯]-3-羰基)哌啶-3-基)苯氧基)-2-甲基丙酰基)-2,5-二氮杂二环[2.2.1]庚-2-氯化铵], the “affinity activity compared with reference compound c” value is “亲和活性更优”.

On to `CC(C)(Oc1cccc(C2CCCN(C(=O)c3cccc(-c4ccc(F)c(F)c4)c3)C2)c1)C(=O)N1C[C@@H]2C[C@H]1CN2.Cl` (stereo partly drawn) [化合物II-66, (1S,4S)-5-(2-(3-(1-(3',4'-二氟-[1,1'-联苯]-3-羰基)哌啶-3-基)苯氧基)-2-甲基丙酰基)-2,5-二氮杂二环[2.2.1]庚烷-2-氯化铵], for which the “affinity activity compared with reference compound c” value is recorded as “亲和活性更优”.

As for `COc1ccc(S(=O)(=O)NC(=O)C(C)(C)Oc2cccc(C3CCCN(C(=O)c4cccc(-c5ccc(F)c(F)c5)c4)C3)c2)cc1` (centres unmarked) [化合物II-68, 2-(3-(1-(3',4'-二氟-[1,1'-联苯]-3-羰基)哌啶-3-基)苯氧基)-N-((4-甲氧基苯基)磺酰基)-2-甲基丙酰胺], the “affinity activity compared with reference compound c” value is “亲和活性更优”.
